Data as given in patent US8168199B2, “Dipeptidyl peptidase IV inhibitors for the treatment of schizophrenia and depression” (priority 2000, dated 2012).

How the values were obtained:
[1] = tested on: Male WistarF/Han (WF) rats; experiment: 1 h and 12 h food-intake after i.c.v. P32/98 and NPY (Example 3); assay type: in vivo, rat; settings: i.c.v. P32/98 5 pmol-500 nmol, NPY 50 pmol-1.6 nmol; dark cycle
Method: (§1) Animals. Male WistarF/Han (WF) rats (Central Animal Laboratory, Hannover Medical School, Hannover, Germany, weighing 330-370 g, were housed in a sound-proof, temperature controlled (24.0±0.5° C.) room under specific pathogen free conditions with a 12/12 h dark/light cycle (lights on at 07.00 with illumination level of 80 Lux). Food (Altromin lab chow pellets) and tap water were available ad libitum. Under ketamine/xylasine (100/5 mg/kg, i.p.) anesthesia, the rats were fixed in a Kopf stereotaxic frame and implanted with cannulae (Plastic One, Inc., Roanoke, Va., USA) above the lateral ventricle. All research and animal care procedures were approved by the Lower Saxony district government (Hannover, Germany) and followed principles described in the European Community's Council Directive of 24 Nov. 1986 (86/609/EEC).
Surgery and i.c.v. application. For surgery, rats were anesthetized and prepared with i.c.v. cannulae (coordinates: A: −0.7 mm caudal, L: 1.4 mm lateral to bregma; and V3.2 mm ventral to the skull surface; tooth bar +3.0 above ear bars) using standard stereotaxic procedures as described in detail elsewhere (von Hörsten et al., 1998a, b, c). After a 7-day recovery period, successful ventricle cannulation was confirmed by an angiotensin drinking response (von Hörsten et al., 1998a). Rats showing a positive drinking response (n=59) were then habituated to experimental handling by daily sham injections for seven days.
Animals were randomly divided into two sets of four experimental groups (n=5-6/group), which completed different consecutive SI test of anxiety. […] The time spent in active social interaction (SI-time), 1 h and 12 h food-intake were measured. […]
Statistical analysis. Data from repeated observations (food intake) were analyzed by two-way analyses of variance for repeated measures (ANOVA) (factors: “substrain” and “food intake” as repeated measure). Data obtained from simple measures such as DPIV activity or SI time were analyzed by one-way (factor: “substrain”) ANOVA. […]

[2] = tested on: Male WistarF/Han (WF) rats; experiment: Social interaction (SI) test with Y1R antagonist BIBP3226, P32/98 and NPY (Example 4); assay type: in vivo, rat
Method: as §1, with “330±31 g±SD,” for “330-370 g,”
(§2) Surgery and i.c.v. application. […]
(§3) Animals were randomly divided into eight experimental groups (n=6-8/group), which completed one SI test of anxiety: (1) aCSF+aCSF+aCSF; (2) BIBP+aCSF+aCSF; (3) aCSF+P32/98+aCSF; (4) BIBP+P32/98+aCSF; (5) aCSF+aCSF+NPY; (6) BIBP+aCSF+NPY; (7) aCSF+[…]+NPY; (8) BIBP+P32/98+NPY. […] The time spent in active social interaction (SI-time), 1 h, and 12 h food-intake were measured. […]
Social interaction (SI) test. […] Behavior was monitored using a video camera placed above the field inside the testing/isolation box. The SI behavior of both rats was recorded on-line from a monitor placed outside on top of the box. The following parameters were scored by an observer (HPN) unaware of the substrain of rats: duration of time spent in sniffing, following, crawling under and over other rats, but not passive body contact (resting, sleeping). […]
(§4) Statistical analysis. Data obtained from the measures SI time and 1 h food intake were analyzed by one-way (factor: “treatment”) ANOVA. […]

dipeptidyl peptidase IV = biological target: T1, dipeptidyl peptidase IV (Homo sapiens, UniProt P27487); settings: human serum incubated with neuropeptide Y or peptide YY; cited from earlier work
T1 construct: from tissue; host or cells: human serum
T1 sequence (P27487 39-766 limits assumed): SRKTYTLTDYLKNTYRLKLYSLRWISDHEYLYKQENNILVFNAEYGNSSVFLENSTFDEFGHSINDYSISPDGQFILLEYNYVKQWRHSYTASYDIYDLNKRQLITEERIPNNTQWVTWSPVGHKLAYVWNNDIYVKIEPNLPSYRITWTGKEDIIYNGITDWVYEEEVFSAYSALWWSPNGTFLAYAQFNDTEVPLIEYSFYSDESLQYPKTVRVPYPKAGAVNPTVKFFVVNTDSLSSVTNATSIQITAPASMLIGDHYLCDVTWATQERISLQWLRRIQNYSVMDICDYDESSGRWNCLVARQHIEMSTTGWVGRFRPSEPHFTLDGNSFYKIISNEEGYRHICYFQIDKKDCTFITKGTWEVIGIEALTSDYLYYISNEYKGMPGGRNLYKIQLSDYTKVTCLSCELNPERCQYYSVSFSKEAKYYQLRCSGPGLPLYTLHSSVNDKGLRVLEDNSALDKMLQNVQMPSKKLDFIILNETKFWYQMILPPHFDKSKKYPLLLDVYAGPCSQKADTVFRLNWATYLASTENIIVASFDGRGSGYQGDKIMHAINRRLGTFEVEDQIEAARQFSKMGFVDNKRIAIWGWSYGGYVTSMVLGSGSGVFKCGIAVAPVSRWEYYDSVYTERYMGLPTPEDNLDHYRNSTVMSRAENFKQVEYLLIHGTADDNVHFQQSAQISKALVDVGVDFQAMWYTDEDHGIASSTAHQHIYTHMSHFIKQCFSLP

[3] = i.c.v. injection; cited from earlier work
rats = settings: administered into the dorsal periaqueductal gray matter; cited from earlier work
[4] = tested on: Male WistarF/Han (WF) rats; experiment: 1 h food-intake with Y1R antagonist BIBP3226, P32/98 and NPY (Example 4); assay type: in vivo, rat; settings: i.c.v. BIBP3226 100 nmol
Method: as §1, with “330±31 g±SD,” for “330-370 g,”
as §2, §3, §4

Molecule: Rat neuropeptide Y1-36 [NPY, reference compound]
- amount of food eaten within 1 h [1]: “u-shaped” dose-dependent feeding effect
- SI-time, NPY alone ([2]; i.c.v. 0.8 nmol): anxiolytic-like effect

Molecule: Ile-Pro-Ile [diprotin A]
- formation of Tyr-Pro in serum (dipeptidyl peptidase IV): blocked

Molecule: NCCCC[C@H](N)C(=O)N1CCCC1 [Lys-pyrrolidine]
- formation of Tyr-Pro in serum (dipeptidyl peptidase IV): blocked

Molecule: NC(N)=NCCC[C@@H](NC(=O)C(c1ccccc1)c1ccccc1)C(=O)NCc1ccc(O)cc1 [BIBP3226]
- anxiety-related behavior in the elevated plus-maze test [3]: anxiogenic-like effects
- locomotor effect in the elevated plus-maze test [3]: without any locomotor deficit
- effect of Y1 receptor antagonist pre-treatment on P32/98-induced potentiation of NPY anxiolysis (SI behavior) ([2]; i.c.v. BIBP3226 100 nmol, P32/98 50 nmol, NPY 0.8 nmol): can block
- time spent in active social interaction (rats): decreased
- effect of Y1 R blockade on 1 h feeding effects [4]: only partly affected
